Laboratory results reported in patent US12220411B1, “Application of PTGDS inhibitor in preparation of drug for treating cataracts” (THE EYE HOSPITAL OR WENZHOU MEDICAL UNIVERSITY, priority 2023, dated 2025).

Key:
HLEC-B3 cell line = experiment: CCK8 cell activity with AT-56 added; assay type: cell-based, human
Protocol: AT-56 was added to the cell line.

lens epithelial cells [1] = experiment: ROS fluorescence staining in H2O2 epithelial cell oxidation model; assay type: cell-based, human; settings: 200 μM H2O2 and 10 µM AT-56 (FIG. 9)
lens epithelial cells [2] = experiment: MDA content measurement (oxidative stress injury); assay type: cell-based, human
Protocol: MDA is an important index of oxidative stress, and measurement on the content of the MDA reflects a degree of an oxidative stress injury. After addition of different concentrations of PTGDS (FIG. 10A) and PGD2 (FIG. 10B), values of MDA were measured.

lens epithelial cells [3] = experiment: Apoptosis of lens epithelial cells cultured with H2O2; assay type: cell-based, human; settings: 10 μM AT-56 added to 200 μM H2O2 (FIG. 11)
From the text: If the lens epithelial cells suffer from the oxidative stress injury, excessive ROS may accumulate in the cells, which can cause apoptosis until generation of cataracts.

rat lens = experiment: In vitro oxidative opacity model for a rat lens (lens organ culture)
lens epithelial cells [4] = experiment: ROS fluorescence staining after addition of PTGDS or PGD2; assay type: cell-based, human

C1=Cc2ccccc2C(=C2CCN(CCCCc3nn[nH]n3)CC2)c2ccccc21 [AT-56, 4-dibenzo[a,d]cyclohepten-5-ylidene-1-[4-(2H-tetrazol-5-yl)-butyl]-piperidine]
cell activity (CCK8) (HLEC-B3 cell line; 7 μM AT-56, versus DMSO): higher than that with the addition of DMSO | cell activity (CCK8) (HLEC-B3 cell line; 10 μM AT-56, versus DMSO): higher than that with the addition of DMSO | ROS production in H2O2 epithelial cell oxidation model (lens epithelial cells [1]): inhibit lens epithelial cells from producing ROS | production of the MDA (lens epithelial cells [2]; AT-56 added to 200 μM H2O2 (FIG. 10C)): effectively reduce production of the MDA | apoptosis of lens epithelial cells (lens epithelial cells [3]): effectively reduce apoptosis | progression of the cataracts (lens opacity) (rat lens; 200 μM H2O2 + 7 or 10 μM AT-56 for 12 h (FIGS. 12A-D)): alleviated progression of the cataracts | degree of the cataracts (lens opacity) (rat lens; 200 μM H2O2 for 12 h, then 7 or 10 μM AT-56 for 24 h (FIGS. 12E-G)): effectively reduce the degree of the cataracts

CCCCC[C@H](O)/C=C/[C@H]1C(=O)C[C@H](O)[C@@H]1C/C=C\CCCC(=O)O [PGD2, prostaglandin D2]
levels of ROS produced by the lens epithelial cells (lens epithelial cells [4]; PGD2 0.1, 0.4, 0.7, 1.0 nM versus DMSO (FIG. 8)): increased, and were concentration-dependent | content of MDA (lens epithelial cells [2]; different concentrations of PGD2 (FIG. 10B)): increased with the increase of the concentration

B1: PTGDS: prostaglandin H2 (PGH2) D-isomerase protein added to lens epithelial cells at 100-1000 pg/mL (protein, UniProt P41222 23-190, looked up)
Prostaglandin-H2 D-isomerase: APEAQVSVQPNFQQDKFLGRWFSAGLASNSSWLREKKAALSMCKSVVAPATDGGLNLTSTFLRKNQCETRTMLLQPAGSLGSYSYRSPHWGSTYSVSVVETDYDQYALLYSQGSKGPGEDFRMATLYSRTQTPRAELKEKFTAFCKAQGFTEDTIVFLPQTDKCMTEQ
levels of ROS produced by the lens epithelial cells (lens epithelial cells [4]; PTGDS 100, 400, 700, 1000 pg/mL versus DMSO control (FIG. 7)): increased, and were concentration-dependent | content of MDA (lens epithelial cells [2]; different concentrations of PTGDS (FIG. 10A)): increased with the increase of the concentration
